Laboratory results from patent publication US20250090614A1, “COMPOSITIONS AND METHODS FOR IMPROVING LUNG FUNCTION” (priority 2023, published 2025).

Tests used:
Format in all cases: in vivo, mouse
Conditions in all cases: aged C57BL/6 mice, 25 mg/kg p.o. each substance, 90 days
[1] = test system: old C57b1/6 mice; assay: Minute ventilation by whole-body plethysmography in aged mice
Protocol: The experiments were performed in old C57b1/6 mice (28-30 weeks). Table 1 discloses the groups of mice used for the experimentation. C57BL/6 mice were bred and naturally aged in a pathogen-free colony. Mice were group-housed six per cage for the treatment regimen and maintained on a 12-hr light-dark schedule with ad libitum access to food and water. All experiments were designed according to the principles of animal use for gerontological research (Miller, R. A., & Nadon, N. L. (2000). Principles of animal use for gerontological research. Journals of Gerontology. Series A, Biological Sciences and Medical Sciences, 55, B117-B123) [table] The above test substances were administered to the mice for a period of 90 days. […] The respiratory muscle function in the study animals was assessed by estimating the Tidal Volume, Minute ventilation, Transdiaphragmatic pressure ([…]) and Respiratory rate. […] In the present study, ventilatory parameters were measured in awake mice during eupnoea (spontaneous breathing of room air) using a whole-body plethysmography system. […] Recordings were taken after 10 min of acclimatization and recorded for one hour. Recorded parameters included tidal volume and minute ventilation Minute ventilation-Minute ventilation is the amount of air inhaled or exhaled from a person's lungs in one minute is an important measurement that's related to tidal volume. […]

[2] = test system: SIRT1; assay: SIRT1 ELISA in lung tissue homogenate of aged mice
Protocol: The experiments were performed in old C57b1/6 mice (28-30 weeks). Table 1 discloses the groups of mice used for the experimentation. C57BL/6 mice were bred and naturally aged in a pathogen-free colony. Mice were group-housed six per cage for the treatment regimen and maintained on a 12-hr light-dark schedule with ad libitum access to food and water. All experiments were designed according to the principles of animal use for gerontological research (Miller, R. A., & Nadon, N. L. (2000). Principles of animal use for gerontological research. Journals of Gerontology. Series A, Biological Sciences and Medical Sciences, 55, B117-B123) [table] The above test substances were administered to the mice for a period of 90 days. Rapamycin was used as a positive control. After 90 days of administration experiments were performed to assess the respiratory muscle function, anatomical changes, cellular senescence and immunological changes. A number of cellular mechanisms and alterations constitute the hallmarks of cellular senescence. These include a stable cell cycle arrest chromatin alteration & reorganization; Inhibition of Sirt-1. Inhibition of AMPK and Dysregulation of mTOR. Silencing information regulator 2 related enzyme 1 (sirtuin1, SIRT1) is an NAD+-dependent deacetylase, which is involved in the regulation of cellular senescence and aging. The expression of SIRT1 is diminished with aging in mice. […]

[3] = test system: mTOR; assay: mTOR ELISA in lung tissue homogenate of aged mice
Protocol: The experiments were performed in old C57b1/6 mice (28-30 weeks). Table 1 discloses the groups of mice used for the experimentation. C57BL/6 mice were bred and naturally aged in a pathogen-free colony. Mice were group-housed six per cage for the treatment regimen and maintained on a 12-hr light-dark schedule with ad libitum access to food and water. All experiments were designed according to the principles of animal use for gerontological research (Miller, R. A., & Nadon, N. L. (2000). Principles of animal use for gerontological research. Journals of Gerontology. Series A, Biological Sciences and Medical Sciences, 55, B117-B123) [table] The above test substances were administered to the mice for a period of 90 days. Rapamycin was used as a positive control. After 90 days of administration experiments were performed to assess the respiratory muscle function, anatomical changes, cellular senescence and immunological changes. Activation of AMPK delays senescence. Abnormal autophagy and aging promote each other, and AMPK is an important regulator of this process. AMPK is involved in the transduction of several aging-related signaling pathways. AMPK intervenes in the development of many age-related diseases. […] These events contribute to the pathogenesis of age-related disorders.

[4] = test system: AMPK; assay: AMPK ELISA in lung tissue homogenate of aged mice
Protocol: The experiments were performed in old C57b1/6 mice (28-30 weeks). Table 1 discloses the groups of mice used for the experimentation. C57BL/6 mice were bred and naturally aged in a pathogen-free colony. Mice were group-housed six per cage for the treatment regimen and maintained on a 12-hr light-dark schedule with ad libitum access to food and water. All experiments were designed according to the principles of animal use for gerontological research (Miller, R. A., & Nadon, N. L. (2000). Principles of animal use for gerontological research. Journals of Gerontology. Series A, Biological Sciences and Medical Sciences, 55, B117-B123)
The above test substances were administered to the mice for a period of 90 days. Rapamycin was used as a positive control. After 90 days of administration experiments were performed to assess the respiratory muscle function, anatomical changes, cellular senescence and immunological changes.
Activation of AMPK delays senescence. Abnormal autophagy and aging promote each other, and AMPK is an important regulator of this process. AMPK is involved in the transduction of several aging-related signaling pathways. AMPK intervenes in the development of many age-related diseases.

O=C(/C=C/c1ccc(O)c(O)c1)O[C@H](Cc1ccc(O)c(O)c1)C(=O)O [Rosmarinic acid]
minute ventilation ([1]; versus old mice control): increase
minute ventilation, comparison between treatment groups ([1]; Rapamycin 8 mg/kg p.o. positive control): better improvement than control, and Rapamycin
expression of SIRT1 [2]: increased
expression of mTOR [3]: decreased
AMPK levels [4]: increased
